Assay results taken from US8642770B2, “Indole derivative” (Takeda Pharmaceutical Company Limited, priority 2010, dated 2014).

melting point [°C] | SMILES
125 to 126 | CC(C)CNCc1cc2cc(NC(=O)c3ccc(OCC4CCOC4)cc3)ccc2n1C (centres unmarked) [Example 21, N-(1-methyl-2-{[(2-methylpropyl)amino]methyl}-1H-indol-5-yl)-4-(tetrahydrofuran-3-ylmethoxy)benzamide]
162 to 163 | Cn1c(CNCC(C)(C)C)cc2cc(NC(=O)c3ccc(OCC4CCOC4)cc3)ccc21 (centres unmarked) [Example 22, N-(2-{[(2,2-dimethylpropyl)amino]methyl}-1-methyl-1H-indol-5-yl)-4-(tetrahydrofuran-3-ylmethoxy)benzamide]
153 to 154 | Cn1c(CNCC2CCOCC2)cc2cc(NC(=O)c3ccc(OCC4CCOC4)cc3)ccc21 (centres unmarked) [Example 23, N-(1-methyl-2-{[(tetrahydro-2H-pyran-4-ylmethyl)amino]methyl}-1H-indol-5-yl)-4-(tetrahydrofuran-3-ylmethoxy)benzamide]
181 to 182 | Cn1c(CN[C@H]2CC[C@](C)(O)CC2)cc2cc(NC(=O)c3ccc(OCC4CCOC4)cc3)ccc21 (stereo partly drawn) [Example 24, N-(2-{[(trans-4-hydroxy-4-methylcyclohexyl)amino]methyl}-1-methyl-1H-indol-5-yl)-4-(tetrahydrofuran-3-ylmethoxy)benzamide]
169 | Cn1c(CNCC(C)(C)O)cc2cc(NC(=O)c3ccc(OCC4CCOC4)cc3)ccc21 (centres unmarked) [Example 25, N-(2-{[(2-hydroxy-2-methylpropyl)amino]methyl}-1-methyl-1H-indol-5-yl)-4-(tetrahydrofuran-3-ylmethoxy)benzamide]
131 to 133 | Cn1c(CNCC2CCOC2)cc2cc(NC(=O)c3ccc(OCC4CCOC4)cc3)ccc21 (centres unmarked) [Example 26, N-(1-methyl-2-{[(tetrahydrofuran-3-ylmethyl)amino]methyl}-1H-indol-5-yl)-4-(tetrahydrofuran-3-ylmethoxy)benzamide]
159 to 160 | Cn1c(CNCC(C)(C)O)cc2cc(NC(=O)c3ccc(OC[C@@H]4CCCO4)cc3F)ccc21 [Example 27, 2-fluoro-N-(2-{[(2-hydroxy-2-methylpropyl)amino]methyl}-1-methyl-1H-indol-5-yl)-4-[(2S)-tetrahydrofuran-2-ylmethoxy]benzamide]
138 to 139 | Cn1c(CN[C@H]2CC[C@](C)(O)CC2)cc2cc(NC(=O)c3ccc(OC[C@@H]4CCCO4)cc3F)ccc21 [Example 28, 2-fluoro-N-(2-{[(trans-4-hydroxy-4-methylcyclohexyl)amino]methyl}-1-methyl-1H-indol-5-yl)-4-[(2S)-tetrahydrofuran-2-ylmethoxy]benzamide]
168 to 169 | CC(C)CNCc1cc2cc(NC(=O)c3ccc(C#CC4(O)CCC4)cc3)ccc2n1C [Example 29, 4-[(1-hydroxycyclobutyl)ethynyl]-N-(2-{[(2-methylpropyl)amino]methyl}-1-methyl-1H-indol-5-yl)benzamide]
160 to 161 | Cn1c(CNCC(C)(C)C)cc2cc(NC(=O)c3ccc(C#CC4(O)CCC4)cc3)ccc21 [Example 30, N-(2-{[(2,2-dimethylpropyl)amino]methyl}-1-methyl-1H-indol-5-yl)-4-[(1-hydroxycyclobutyl)ethynyl]benzamide]
173 | Cn1c(CNCC(C)(C)C)cc2cc(NC(=O)c3ccc(C#CC4(O)CC4)cc3)ccc21 [Example 31, N-(2-{[(2,2-dimethylpropyl)amino]methyl}-1-methyl-1H-indol-5-yl)-4-[(1-hydroxycyclopropyl)ethynyl]benzamide]
146 to 147 | Cc1c(CNCC2CCOCC2)[nH]c2ccc(NC(=O)c3ccc(OC[C@@H]4CCCO4)cc3)cc12 [Example 33, N-(3-methyl-2-{[(tetrahydro-2H-pyran-4-ylmethyl)amino]methyl}-1H-indol-5-yl)-4-[(2S)-tetrahydrofuran-2-ylmethoxy]benzamide]
145 to 146 | Cc1c(CNCC(C)C)n(C)c2ccc(NC(=O)c3ccc(OC[C@@H]4CCCO4)cc3)cc12 [Example 34, N-(2-{[(2-methylpropyl)amino]methyl}-1,3-dimethyl-1H-indol-5-yl)-4-[(2S)-tetrahydrofuran-2-ylmethoxy]benzamide]
185 to 186 | Cc1c(CNCC2CCOCC2)n(C)c2ccc(NC(=O)c3ccc(OC[C@@H]4CCCO4)cc3)cc12 [Example 35, N-(1,3-dimethyl-2-{[(tetrahydro-2H-pyran-4-ylmethyl)amino]methyl}-1H-indol-5-yl)-4-[(2S)-tetrahydrofuran-2-ylmethoxy]benzamide]
145 to 146 | Cc1c(CNCC(C)(C)O)n(C)c2ccc(NC(=O)c3ccc(OC[C@@H]4CCCO4)cc3)cc12 [Example 36, N-(2-{[(2-hydroxy-2-methylpropyl)amino]methyl}-1,3-dimethyl-1H-indol-5-yl)-4-[(2S)-tetrahydrofuran-2-ylmethoxy]benzamide]
165 to 166 | Cc1c(CNCC(C)(C)C)n(C)c2ccc(NC(=O)c3ccc(OC[C@@H]4CCCO4)cc3)cc12 [Example 37, N-(2-{[(2,2-dimethylpropyl)amino]methyl}-1,3-dimethyl-1H-indol-5-yl)-4-[(2S)-tetrahydrofuran-2-ylmethoxy]benzamide]

melting point [°C] | SMILES
172 to 173 | Cc1c(CN[C@H]2CC[C@](C)(O)CC2)n(C)c2ccc(NC(=O)c3ccc(OC[C@@H]4CCCO4)cc3)cc12 [Example 38, N-(2-{[(trans-4-hydroxy-4-methylcyclohexyl)amino]methyl}-1,3-dimethyl-1H-indol-5-yl)-4-[(2S)-tetrahydrofuran-2-ylmethoxy]benzamide]
142 to 143 | Cc1c(CNCC(C)C)n(C)c2ccc(NC(=O)c3ccc(OCC4CC4)cc3)cc12 [Example 39, 4-(cyclopropylmethoxy)-N-(2-{[(2-methylpropyl)amino]methyl}-1,3-dimethyl-1H-indol-5-yl)benzamide]
176 to 177 | Cc1c(CNCC2CCOCC2)n(C)c2ccc(NC(=O)c3ccc(OCC4CC4)cc3)cc12 [Example 40, 4-(cyclopropylmethoxy)-N-(1,3-dimethyl-2-{[(tetrahydro-2H-pyran-4-ylmethyl)amino]methyl}-1H-indol-5-yl)benzamide]
169 to 170 | Cc1c(CNCC(C)(C)C)n(C)c2ccc(NC(=O)c3ccc(OCC4CC4)cc3)cc12 [Example 41, 4-(cyclopropylmethoxy)-N-(2-{[(2,2-dimethylpropyl)amino]methyl}-1,3-dimethyl-1H-indol-5-yl)benzamide]
191 | Cc1c(CN[C@H]2CC[C@](C)(O)CC2)n(C)c2ccc(NC(=O)c3ccc(OCC4CC4)cc3)cc12 [Example 42, 4-(cyclopropylmethoxy)-N-(2-{[(trans-4-hydroxy-4-methylcyclohexyl)amino]methyl}-1,3-dimethyl-1H-indol-5-yl)benzamide]
181 to 182 | Cc1c(NC(=O)c2ccc(OCC3CC3)cc2)ccc2[nH]c(CNCC3CCOCC3)cc12 [Example 43, 4-(cyclopropylmethoxy)-N-(4-methyl-2-{[(tetrahydro-2H-pyran-4-ylmethyl)amino]methyl}-1H-indol-5-yl)benzamide]
186 | Cc1c(NC(=O)c2ccc(OCC3CC3)cc2)ccc2[nH]c(CNCC(C)(C)O)cc12 [Example 44, 4-(cyclopropylmethoxy)-N-(2-{[(2-hydroxy-2-methylpropyl)amino]methyl}-4-methyl-1H-indol-5-yl)benzamide]
207 to 208 | Cc1c(NC(=O)c2ccc(OCC3CC3)cc2)ccc2[nH]c(CNC3CCCC3)cc12 [Example 45, N-{2-[(cyclopentylamino)methyl]-4-methyl-1H-indol-5-yl}-4-(cyclopropylmethoxy)benzamide]
166 to 167 | Cc1c(NC(=O)c2ccc(OC[C@@H]3CCCO3)cc2)ccc2[nH]c(CNCC3CCOCC3)cc12 [Example 47, N-(4-methyl-2-{[(tetrahydro-2H-pyran-4-ylmethyl)amino]methyl}-1H-indol-5-yl)-4-[(2S)-tetrahydrofuran-2-ylmethoxy]benzamide]
169 to 170 | Cc1c(NC(=O)c2ccc(OC[C@@H]3CCCO3)cc2)ccc2[nH]c(CNCC(C)(C)O)cc12 [Example 48, N-(2-{[(2-hydroxy-2-methylpropyl)amino]methyl}-4-methyl-1H-indol-5-yl)-4-[(2S)-tetrahydrofuran-2-ylmethoxy]benzamide]
191 to 192 | Cc1c(NC(=O)c2ccc(OC[C@@H]3CCCO3)cc2)ccc2[nH]c(CNC3CCCC3)cc12 [Example 49, N-{2-[(cyclopentylamino)methyl]-4-methyl-1H-indol-5-yl}-4-[(2S)-tetrahydrofuran-2-ylmethoxy]benzamide]
160 to 162 | Cc1c(NC(=O)c2ccc(OC[C@@H]3CCCO3)cc2)ccc2c1cc(CNCC(C)(C)O)n2C [Example 52, N-(2-{[(2-hydroxy-2-methylpropyl)amino]methyl}-1,4-dimethyl-1H-indol-5-yl)-4-[(2S)-tetrahydrofuran-2-ylmethoxy]benzamide]
162 | Cc1c(NC(=O)c2ccc(OC[C@@H]3CCCO3)cc2)ccc2c1cc(CNCC(C)C)n2C [Example 54, N-(1,4-dimethyl-2-{[(2-methylpropyl)amino]methyl}-1H-indol-5-yl)-4-[(2S)-tetrahydrofuran-2-ylmethoxy]benzamide]
189 | Cc1c(NC(=O)c2ccc(OC[C@@H]3CCCO3)cc2)ccc2c1cc(CNC1CCCC1)n2C [Example 56, N-{2-[(cyclopentylamino)methyl]-1,4-dimethyl-1H-indol-5-yl}-4-[(2S)-tetrahydrofuran-2-ylmethoxy]benzamide]
225 | CCCNCc1cc2c(C)c(NC(=O)c3ccc(OC[C@@H]4CCCO4)cc3)ccc2n1C [Example 57, N-{1,4-dimethyl-2-[(propylamino)methyl]-1H-indol-5-yl}-4-[(2S)-tetrahydrofuran-2-ylmethoxy]benzamide]
210 | Cc1c(NC(=O)c2ccc(OC[C@@H]3CCCO3)cc2)ccc2c1cc(CN1CCC(C)(O)CC1)n2C [Example 58, N-{2-[(4-hydroxy-4-methylpiperidin-1-yl)methyl]-1,4-dimethyl-1H-indol-5-yl}-4-[(2S)-tetrahydrofuran-2-ylmethoxy]benzamide]
